Laboratory results published in PMC5681660, “Reduced hepatitis B and D viral entry using clinically applied drugs as novel inhibitors of the bile acid transporter NTCP” (Scientific Reports, 2017).
Where a name gives a salt, the structure may show the parent alone.

Target: T1, human NTCP (Homo sapiens, UniProt Q14973)
T1 sequence (Q14973 1-349): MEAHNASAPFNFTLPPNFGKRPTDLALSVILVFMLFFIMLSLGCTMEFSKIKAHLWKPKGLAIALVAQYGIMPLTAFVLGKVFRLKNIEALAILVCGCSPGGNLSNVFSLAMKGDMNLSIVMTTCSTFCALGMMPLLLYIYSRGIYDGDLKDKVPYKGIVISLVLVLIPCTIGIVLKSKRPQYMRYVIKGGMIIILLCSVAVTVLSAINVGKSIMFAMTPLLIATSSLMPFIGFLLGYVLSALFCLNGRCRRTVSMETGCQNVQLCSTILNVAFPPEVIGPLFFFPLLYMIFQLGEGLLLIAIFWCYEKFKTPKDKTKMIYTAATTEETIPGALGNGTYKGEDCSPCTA
Test: Screening taurocholate uptake assay (96-well, [14C]taurocholate, 10 µM drug)
Details: for B-score functional assay: screening taurocholate uptake, 10 µM drug

[1] = ranking over the functional and the binding screening assay
[2] = combined ranking of functional and binding screening assays

Row | Structure (SMILES) | Ranking score [1] | B-score functional assay | Ranking score [2] | B-score functional assay (B-score)
1 | CC[C@H](c1ccc(O)cc1)[C@@H](CC)c1ccc(O)cc1 [Hexestrol] | 43.1277 | -5.763 | – | –
2 | CCCCC(CC)CN1CN(CC(CC)CCCC)CC(C)(N)C1 (stereo not shown) [Hexetidine] | – | 3.961 | 491.543 | –
3 | NCCc1c[nH]cn1 [Histamine dihydrochloride] | – | 0.779 | 536.125 | –
4 | COc1ccc(CCN)cc1OC [Homoveratrylamine] | – | 0.521 | 500.783 | –
5 | CCN(CC)CCNc1ccc(CO)c2sc3ccccc3c(=O)c12 [Hycanthone] | – | -0.266 | 491.684 | –
6 | NNc1nncc2ccccc12 [Hydralazine hydrochloride] | – | -0.84 | 587.239 | –
7 | NS(=O)(=O)c1cc2c(cc1Cl)NCNS2(=O)=O [Hydrochlorothiazide] | – | 0.079 | 515.124 | –
8 | C[C@]12CCC(=O)C=C1CC[C@@H]1[C@@H]2[C@@H](O)C[C@@]2(C)[C@H]1CC[C@]2(O)C(=O)CO [Hydrocortisone base] | – | 0.004 | 557.864 | –
9 | CCCCCN(C)CCC(O)(P(=O)([O-])O)P(=O)(O)O.[Na+] [Ibandronate sodium] | 183.606 | 0.015 | – | –
10 | c1ccc2c(c1)OCC(C1=NCCN1)O2 (stereo not shown) [Idazoxan hydrochloride] | 198.728 | -2.926 | – | –
11 | COC1=C(OC)C(=O)C(CCCCCCCCCCO)=C(C)C1=O [Idebenone] | – | 0.176 | 488.87 | –
12 | O=c1[nH]c(=O)n([C@H]2C[C@H](O)[C@@H](CO)O2)cc1I [Idoxuridine] | 91.1921 | -4.488 | – | –
13 | C[C@@H](O)[C@H]1C(=O)N2C(C(=O)O)=C(SCCN=CN)C[C@H]12 [Imipenem] | – | – | 1154.72 | 1.996
14 | CC1Cc2ccccc2N1NC(=O)c1ccc(Cl)c(S(N)(=O)=O)c1 (stereo not shown) [Indapamide] | – | -0.108 | 559.557 | –
15 | COc1ccc2c(c1)c(CC(=O)O)c(C)n2C(=O)c1ccc(Cl)cc1 [Indomethacin] | 264.174 | -1.11 | – | –
16 | NC(N)=NCc1cccc(I)c1.NC(N)=NCc1cccc(I)c1.O=S(=O)(O)O [Iobenguane sulfate] | – | – | 1171.02 | 1.016
17 | CC(=O)N(CC(C)C(=O)O)c1c(I)cc(I)c(N)c1I (stereo not shown) [Iocetamic acid] | 232.635 | -0.783 | – | –
18 | CC(=O)N(CC(O)CN(C(C)=O)c1c(I)c(C(=O)NCC(O)CO)c(I)c(C(=O)NCC(O)CO)c1I)c1c(I)c(C(=O)NCC(O)CO)c(I)c(C(=O)NCC(O)CO)c1I (stereo not shown) [Iodixanol] | 270.78 | 2.051 | – | –
19 | C[C@H](O)C(=O)Nc1c(I)c(C(=O)NC(CO)CO)c(I)c(C(=O)NC(CO)CO)c1I [Iopamidol] | 105.925 | -2.672 | – | –
20 | COCC(=O)Nc1c(I)c(C(=O)NCC(O)CO)c(I)c(C(=O)N(C)CC(O)CO)c1I (stereo not shown) [Iopromide] | 153.642 | -5.088 | – | –
21 | CC(C)Oc1ccc2c(=O)c(-c3ccccc3)coc2c1 [Ipriflavone] | – | 2.878 | 535.848 | –
22 | CC(C)NNC(=O)c1ccncc1.O=P(O)(O)O [Iproniazide phosphate] | – | 0.714 | 542.692 | –
23 | Cc1cc(C(=O)NNCc2ccccc2)no1 [Isocarboxazid] | – | 0.681 | 552.74 | –
24 | CCC(NC(C)C)C(O)c1ccc(O)c(O)c1.CS(=O)(=O)O (stereo not shown) [Isoetharine mesylate salt] | – | -0.384 | 639.265 | –
25 | CC(=O)OCC(=O)[C@@]1(O)CC[C@H]2[C@@H]3CCC4=CC(=O)C=C[C@]4(C)[C@@]3(F)[C@@H](O)C[C@@]21C [Isoflupredone acetate] | – | 1.125 | 486.111 | –
26 | Cc1c(NC(C)C)c(=O)n(-c2ccccc2)n1C.Cl [Isopyrin hydrochloride] | 209.153 | -3.076 | – | –
27 | O=[N+]([O-])O[C@@H]1CO[C@H]2[C@@H]1OC[C@@H]2O [Isosorbide mononitrate] | 252.589 | -0.263 | – | –

Row | Structure (SMILES) | Ranking score [1] | B-score functional assay | Ranking score [2] | B-score functional assay (B-score)
28 | CC1=C(/C=C/C(C)=C/C=C/C(C)=C\C(=O)O)C(C)(C)CCC1 [Isotretinoin] | 204.751 | -0.503 | – | –
29 | COC(=O)C1=C(C)NC(C)=C(C(=O)OC(C)C)C1c1cccc2nonc12 (stereo not shown) [Isradipine] | 185.591 | -0.707 | – | –
30 | COc1ccc(C(=O)NCc2ccc(OCCN(C)C)cc2)cc1OC [Itopride] | – | -0.688 | 560.029 | –
31 | CC[C@H](C)[C@H]1O[C@]2(CC[C@@H]1C)C[C@@H]1C[C@@H](C/C=C(\C)[C@@H](O[C@H]3C[C@H](OC)[C@@H](O[C@H]4C[C@H](OC)[C@@H](O)[C@H](C)O4)[C@H](C)O3)[C@@H](C)/C=C/C=C3\CO[C@@H]4[C@H](O)C(C)=C[C@@H](C(=O)O1)[C@]34O)O2 [Ivermectin] | 56.4978 | -2.693 | – | –
32 | Cl.OC1CCCCC1N1CCC(c2ccccc2)CC1 (stereo not drawn) [L(-)-vesamicol hydrochloride] | 206.223 | -0.315 | – | –
33 | CC(CCc1ccccc1)NCC(O)c1ccc(O)c(C(N)=O)c1 (stereo not shown) [Labetalol hydrochloride] | – | 2.094 | 596.712 | –
34 | CC(=O)O[C@H]1C[C@H](O[C@H]2[C@@H](O)C[C@H](O[C@H]3[C@@H](O)C[C@H](O[C@H]4CC[C@@]5(C)[C@H](CC[C@@H]6[C@@H]5C[C@@H](O)[C@]5(C)[C@@H](C7=CC(=O)OC7)CC[C@]65O)C4)O[C@@H]3C)O[C@@H]2C)O[C@H](C)[C@H]1O[C@@H]1O[C@H](CO)[C@@H](O)[C@H](O)[C@H]1O [Lanatoside C] | – | -0.511 | 583.598 | –
35 | N#Cc1ccc(C(c2ccc(C#N)cc2)n2cncn2)cc1 [Letrozole] | – | 1.169 | 610.1 | –
36 | N[C@@H](Cc1ccc(O)c(O)c1)C(=O)O [Levodopa] | 265.141 | 0.049 | – | –
37 | Cc1cccc(C)c1NC(=O)CN1CCN(CCCC(c2ccc(F)cc2)c2ccc(F)cc2)CC1 [Lidoflazine] | – | -0.817 | 479.588 | –
38 | CC(=O)NC[C@H]1CN(c2ccc(N3CCOCC3)c(F)c2)C(=O)O1 [Linezolid] | 172.974 | -1.549 | – | –
39 | C[C@H](CCC(=O)O)[C@H]1CC[C@H]2[C@@H]3CC[C@@H]4C[C@H](O)CC[C@]4(C)[C@H]3CC[C@]12C [Lithocholic acid] | 22.4499 | -6.112 | – | –
40 | N#Cc1cc(NC(=O)C(=O)O)c(Cl)c(NC(=O)C(=O)O)c1 [Lodoxamide] | – | -0.138 | 609.015 | –
41 | CN(CCCN1c2ccccc2CCc2ccccc21)CC(=O)c1ccc(Cl)cc1 [Lofepramine] | – | 0.81 | 479.183 | –
42 | CC(Oc1c(Cl)cccc1Cl)C1=NCCN1 (stereo not shown) [Lofexidine] | – | -0.33 | 633.467 | –
43 | N[C@@H](C(=O)N[C@@H]1C(=O)N2C(C(=O)O)=C(Cl)CC[C@H]12)c1ccccc1 [Loracarbef] | – | -0.686 | 611.882 | –
44 | CCOC(=O)N1CCC(=C2c3ccc(Cl)cc3CCc3cccnc32)CC1 [Loratadine] | 78.3326 | -3.222 | – | –
45 | CCCCCN(CCCCC)C(=O)C(CCC(=O)[O-])NC(=O)c1ccc(Cl)c(Cl)c1.[Na+] (stereo not shown) [Lorglumide sodium salt] | 164.012 | -3.59 | – | –
46 | CCOC(=O)O[C@]1(C(=O)OCCl)CC[C@H]2[C@@H]3CCC4=CC(=O)C=C[C@]4(C)[C@H]3[C@@H](O)C[C@@]21C [Loteprednol etabonate] | 211.225 | -2.765 | – | –
47 | CC[C@H](C)C(=O)O[C@H]1C[C@@H](C)C=C2C=C[C@H](C)[C@H](CC[C@@H]3C[C@@H](O)CC(=O)O3)[C@H]21 [Lovastatin] | 175.818 | -0.084 | – | –
48 | O=c1cc(-c2ccc(O)c(O)c2)oc2cc(O)cc(O)c12 [Luteolin] | – | -0.024 | 585.624 | –
49 | CN(C)[C@@H]1C(O)=C(C(=O)NCNCCCC[C@H](N)C(=O)O)C(=O)[C@@]2(O)C(O)=C3C(=O)c4c(O)cccc4[C@@](C)(O)[C@H]3C[C@@H]12 [Lymecycline] | – | 0.716 | 591.633 | –
50 | CCN(CCCCOC(=O)c1ccc(OC)c(OC)c1)C(C)Cc1ccc(OC)cc1 (stereo not shown) [Mebeverine hydrochloride] | – | -0.512 | 474.181 | –
51 | C=C1c2c(Cl)ccc(O)c2C(=O)C2=C(O)[C@]3(O)C(=O)C(C(N)=O)=C(O)[C@@H](N(C)C)[C@@H]3[C@@H](O)[C@H]12.O=C(O)c1cc(S(=O)(=O)O)ccc1O [Meclocycline sulfosalicylate] | – | 0.486 | 647.296 | –
52 | Cc1cccc(CN2CCN(C(c3ccccc3)c3ccc(Cl)cc3)CC2)c1.Cl.Cl (stereo not shown) [Meclozine dihydrochloride] | – | -1.455 | 482.469 | –
53 | Cc1cccc(Nc2ccccc2C(=O)O)c1C [Mefenamic acid] | 180.289 | -1.919 | – | –
